Patent US6794396B2, “Substituted pyridines useful for inhibiting cholesteryl ester transfer protein activity” (Pharmacia Corporation, priority 1998, dated 2004)
Where two headings read alike, the source gives them in different places.

Tests used:
CETP = molecular target: T1, CETP (Homo sapiens, UniProt P11597); assay: CETP activity in vitro: transfer of [3H]CE from HDL donor to LDL acceptor particles; format: biochemical
T1 construct: made in house; host or cells: CHO cells (serum-free conditioned medium)
T1 sequence (P11597 18-493): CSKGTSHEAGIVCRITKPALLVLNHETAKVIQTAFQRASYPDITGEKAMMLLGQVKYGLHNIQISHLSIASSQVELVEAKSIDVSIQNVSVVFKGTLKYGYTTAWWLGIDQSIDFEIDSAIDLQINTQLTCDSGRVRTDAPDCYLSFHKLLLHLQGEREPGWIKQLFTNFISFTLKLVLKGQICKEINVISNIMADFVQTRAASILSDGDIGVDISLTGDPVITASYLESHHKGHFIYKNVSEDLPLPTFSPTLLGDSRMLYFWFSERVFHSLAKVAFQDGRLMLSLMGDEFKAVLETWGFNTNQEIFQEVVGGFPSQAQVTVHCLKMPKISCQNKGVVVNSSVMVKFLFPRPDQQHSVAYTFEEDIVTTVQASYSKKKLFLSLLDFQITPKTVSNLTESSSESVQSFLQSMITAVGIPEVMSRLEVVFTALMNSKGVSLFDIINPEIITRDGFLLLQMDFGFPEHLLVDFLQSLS
Method in brief: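 Transfer of radiolabelled cholesteryl ester from HDL to LDL was followed over 2 h at 37 °C in Tris buffer (pH 7.4, 150 mM NaCl, 2 mM EDTA, 1% BSA), using CETP secreted by transfected CHO cells. Radioactivity in dextran sulfate/Mg-precipitated LDL was measured by scintillation counting, giving IC50.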

[1] = IC50(μm), 50% inhibition of [3H]CE transfer from HDL to LDL, 2 hours at 37° C.
[2] = 50% inhibition of [3H]CE transfer from HDL to LDL, 2 hours at 37° C., read-out: IC50(μm)
[3] = Table 6, compounds of formula T-6, read-out: IC50

IC50 (CETP; [2]) [µM] | SMILES | IC50 (CETP; [1]) [µM] | melting point [°C] | further results
> 100 | COC(=O)c1c(C(F)F)nc(C(F)(F)F)c(C(=O)Oc2ccccc2[N+](=O)[O-])c1CC(C)C [Compound 166, 3-Methyl 5-(2-Nitrophenyl) 2-(Difluoromethyl)-4-(2-methylpropyl)-6-(trifluoromethyl)-3,5-pyridicarboxylate] | – | 102.5 to 105.5 | –
60 | COC(=O)c1c(C(F)F)nc(C(F)(F)F)c(C(=O)Sc2ccc(C(C)C)cc2Cc2ccc(F)cc2)c1CC(C)C [Compound 160, Methyl 2-(Difluoromethyl)-4-(2-methylpropyl)-5-{[(2-(4-fluorobenzyl)-4-isopropylphenyl)thio]carbonyl}-6-(trifluoromethyl)-3-pyridinecarboxylate] | – | 86.5 to 91 | –
60 | COC(=O)c1c(C(F)F)nc(C(F)(F)F)c(C(=O)Oc2cc(C(C)(C)C)cc(C(C)(C)C)c2)c1CC(C)C [Compound 167, 3-Methyl 5-(3,5-Di-t-butylphenyl) 2-(Difluoromethyl)-4-(2-methylpropyl)-6-(trifluoromethyl)-3,5-pyridicarboxylate] | – | 100 to 103.5 | –
> 100 | COC(=O)c1c(C(F)F)nc(C(F)(F)F)c(C(=O)Oc2ccccc2OC)c1CC(C)C [Compound 172, 3-Methyl 5-(2-Methoxyphenyl) 2-(Difluoromethyl)-4-(2-methylpropyl)-6-(trifluoromethyl)-3,5-pyridicarboxylate] | – | 73 to 74.5 | –
50 | COC(=O)c1c(C(F)F)nc(C(F)(F)F)c(COC(=O)c2ccccc2)c1CC1CC1 [Compound 41, Methyl 5-(Benzoyloxymethyl)-2-(difluoromethyl)4-(cyclopropylmethyl)-6-(trifluoromethyl)-3-pyridinecarboxylate] | – | – | –
50 | CCOC(=O)c1c(C(F)(F)F)nc(C(F)(F)F)c(C(=O)OC)c1OCC [Compound 52] | – | – | –
75 | COC(=O)c1c(C(F)F)nc(C(F)(F)F)c(CSC(=O)N(C)C)c1CC(C)C [Compound 79] | – | – | –

The next lines start with the compound.

SMILES | IC50 (CETP; [2]) [µM] | IC50 (CETP; [1]) [µM] | melting point [°C] | further results
COC(=O)c1c(C(F)F)nc(C(F)(F)F)c(C(=O)Oc2ccc(Cl)cc2)c1CC(C)C [Compound 173, 3-Methyl 5-(4-Chlorophenyl) 2-(Difluoromethyl)-4-(2-methylpropyl)-6-(trifluoromethyl)-3,5-pyridicarboxylate] | – | 45 | 81.5 to 82.5 | –
COC(=O)c1c(C(F)F)nc(C(F)(F)F)c(C(=O)Sc2ccccc2OC)c1CC(C)C [Compound 153, Methyl 2-(Difluoromethyl)-4-(2-methylpropyl)-5-{[(2-methoxyphenyl)thio]carbonyl}-6-(trifluoromethyl)-3-pyridinecarboxylate] | – | 100 | 100 to 102 | –
COC(=O)c1c(C(F)F)nc(C(F)(F)F)c(C(=O)Sc2cc(C(C)(C)C)cc(C(C)(C)C)c2)c1CC(C)C [Compound 151, Methyl 2-(Difluoromethyl)-5-{[(3,5-di-t-butylphenyl)thio]carbonyl}-4-(2-methylpropyl)-6-(trifluoromethyl)-3-pyridinecarboxylate] | – | 60 | 102.5 to 108.5 | –
COC(=O)c1c(C(F)F)nc(C(F)(F)F)c(C(=O)Sc2ccc(C(C)(C)C)cc2C(C)(C)C)c1CC(C)C [Compound 155, Methyl 2-(Difluoromethyl)-5-{[(2,4-di-t-butylphenyl)thio]carbonyl}-4-(2-methylpropyl)-6-(trifluoromethyl)-3-pyridinecarboxylate] | 50 | – | 115.5 to 120.5 | –
COC(=O)c1c(OC(=O)N(c2ccccc2)c2ccccc2)cc(C(F)(F)F)nc1C(F)(F)F [Compound 25, Methyl 2,6-Bis(trifluoromethyl)-4-(diphenylaminocarbonyloxy)-3-pyridinecarboxylate] | 40 | – | 114 to 116 | –
COC(=O)c1c(C(F)F)nc(C(F)(F)F)c(C(=O)Sc2ccc(C)cc2C)c1CC(C)C [Compound 152, Methyl 2-(Difluoromethyl)-5-{[(2,4-dimethylphenyl)thio]carbonyl}-4-(2-methylpropyl)-6-(trifluoromethyl)-3-pyridinecarboxylate] | – | 60 | 98.5 to 102.5 | –
COC(=O)c1c(C(F)F)nc(C(F)(F)F)c(C(=O)Sc2cccc(OC)c2)c1CC(C)C [Compound 154, Methyl 2-(Difluoromethyl)-4-(2-methylpropyl)-5-{[(3-methoxyphenyl)thio]carbonyl}-6-(trifluoromethyl)-3-pyridinecarboxylate] | – | 100 | 87 to 88.5 | –
COC(=O)c1c(C(F)F)nc(C(F)(F)F)c(C(=O)Sc2c(Cl)cccc2Cl)c1CC(C)C [Compound 164, Methyl 5-{[(2,6-Dichlorophenyl)thio]carbonyl}-2-(difluoromethyl)-4-(2-methylpropyl)-6-(trifluoromethyl)-3-pyridinecarboxylate] | – | 50 | 109.5 to 112.5 | –
COC(=O)c1c(C(F)F)nc(C(F)(F)F)c(C(=O)Sc2ccc(Cl)cc2)c1CC(C)C [Compound 162, Methyl 5-{[(4-chlorophenyl)thio]carbonyl}-2-(difluoromethyl)-4-(2-methylpropyl)-6-(trifluoromethyl)-3-pyridinecarboxylate] | – | 50 | 94 to 96.5 | –
CC(C)c1ccc(C(F)c2c(C(F)(F)F)nc(C(F)F)c(CO)c2-c2ccccc2)cc1 (centres unmarked) [Compound 265] | – | – | – | IC50 (CETP; Table 8, read-out: IC50): 60 µM
COC=C(Br)c1c(C(F)(F)F)nc(C(F)F)c(C(=O)OC)c1CC1CC1 [Compound 35, Methyl 5-(1-Bromo-2-methoxyethenyl)-4-(cyclopropylmethyl)-2-(difluoromethyl)-6-(trifluoromethyl)-3-pyridinecarboxylate] | – | 45 | – | –
CCOC(=O)c1c(C(F)F)nc(C(F)(F)F)c(C(=O)OCC)c1SC(C)(C)C [Compound 39, Diethyl 2-(Difluoromethyl)-4-(t-butylthio)-6-(trifluoromethyl)-3,5-pyridine-dicarboxylate] | – | 50 | – | –
COC(=O)c1c(C(F)F)nc(C(F)(F)F)c(SCc2cc(Cl)cc3c2OCOC3)c1CC(C)C [Compound 246, Methyl 5[(6-chloro-1,3-benzodioxan-8-yl)methylthio]-2-(difluoromethyl)-4-(2-methylpropyl)-6-(trifluoromethyl)-3-pyridinecarboxylate] | – | – | – | IC50 (CETP; Table 7, compounds of formula T-7, read-out: IC50): 30 µM
CCOC(=O)c1c(C(F)(F)F)nc(C(F)F)c(CN2CCCC2)c1-c1ccc(F)cc1 [Compound 294] | – | – | – | IC50 (CETP; Table 8, read-out: IC50): 40 µM
COC(=O)c1c(C(F)F)nc(C(F)(F)F)c(C(=O)Oc2c(C)cc([N+](=O)[O-])cc2C)c1CC(C)C [Compound 176, 3-Methyl 5-(2,6-Dimethyl-4-nitrophenyl) 2-(Difluoromethyl)-4-(2-methylpropyl)-6-(trifluoromethyl)-3,5-pyridicarboxylate] | – | – | 96 to 97 | –
COC(=O)c1c(C(F)F)nc(C(F)(F)F)c(CSc2cc(C(C)(C)C)cc(C(C)(C)C)c2)c1CC(C)C [Compound 187, Methyl 5-[(3,5-Di-t-butylphenyl)thiomethyl]-2-(difluoromethyl)-4-(2-methylpropyl)-6-(trifluoromethyl)-3-pyridinecarboxylate] | – | – | – | IC50 (CETP; [3]): 40 µM
COC(=O)c1c(C(F)F)nc(C(F)(F)F)c(CSc2c(Cl)cccc2Cl)c1CC(C)C [Compound 201, Methyl 5-[(2,6-Dichlorophenyl)thiomethyl]-2-(difluoromethyl)-4-(2-methylpropyl)-6-(trifluoromethyl)-3-pyridinecarboxylate] | – | – | – | IC50 (CETP; [3]): 30 µM
COC(=O)c1c(C(F)F)nc(C(F)(F)F)c(SC(=O)c2c(C(F)(F)F)nc(C(F)F)c(C(=O)OC)c2CC(C)C)c1CC(C)C [Compound 183, Methyl 5-{[2-(Difluoromethyl)-4-(2-methylpropyl)-3-(methoxycarbonyl)-6-(trifluoromethyl)-5-pyridyl]carbonylthio}-2-(difluoromethyl)-4-(2-methylpropyl)-6-(trifluoromethyl)-3-pyridinecarboxylate] | – | – | – | IC50 (CETP; IC50, Table 5, compounds of formula T-5): 50 µM
COC(=O)c1c(C(F)F)nc(C(F)(F)F)c(C(=O)SC(C)C)c1C1CCC1 [Compound 14, Methyl 2-(Difluoromethyl)-5-[(i-propylthio)carbonyl]-4-(cyclobutyl)-6-(trifluoromethyl)-3-pyridinecarboxylate] | – | 30 | – | –
COC(=O)c1c(C(F)F)nc(C(F)(F)F)c(N=C(CBr)OC)c1CC(C)C [Compound 16] | – | 30 | – | –
COC(=O)c1c(C(F)F)nc(C(F)(F)F)c(-c2ncco2)c1CC(C)C [Compound 110, Methyl 2-(difluoromethyl)-4-(2-methylpropyl)-5-(2-oxazolyl)-6-(trifluoromethyl)-3-pyridinecarboxylate] | – | – | – | remaining activity at 100 µM (CETP; 2 h, read-out: % Transfer @ 100 μm): 76%
